{
  "source": "patent US10946030B2",
  "about": "“Formulations of deoxycholic acid and salts thereof” (ALLERGAN SALES, LLC, priority 2011, dated 2021)",
  "key": {"[1]": {"assay": "Concentration dependent precipitation from aqueous sodium deoxycholate solution after storage, rated by visual inspection", "type": "physicochemical", "settings": "1 week storage; for Precipitation Rating: scale 0 = clear solution, 10 = substantial precipitation", "description": "Solutions of sodium deoxycholate at different concentration were evaluated for precipitate formation after 1 week of storage. […] By visual inspection of FIGS. 1-4, the amount of precipitation can be rated as tabulated below."}, "[2]": {"assay": "pH measurement of sodium deoxycholate solutions", "type": "physicochemical", "excerpt": "The inverse aqueous solubility of sodium deoxycholate, where a more dilute solution (0.5% or 1%) provides more precipitation than a more concentrated solution (2%), is a surprising observation and also evidences that the precipitation phenomena is not directly related to pH, because the pH of the solutions were substantially the same again, especially for the 1% and 2% solutions."}},
  "note": "“Also recorded” adds a separate entry of the source.",
  "data": [
    {"smiles": "C[C@H](CCC(=O)[O-])[C@H]1CCC2C3CC[C@@H]4C[C@H](O)CC[C@]4(C)C3C[C@H](O)[C@@]21C.[Na+]", "note": "(stereo partly drawn) [Sodium Deoxycholate, sodium (4R)-4-((3R,5R,10S,12S,13R,17R)-3,12-dihydroxy-10,13-dimethylhexadecahydro-1H-cyclopenta[a]phenanthren-17-yl)pentanoate]", "values": [
      {"measurement": "Precipitate observed (Comment)", "setting": "[1]; 0.5% w/v in water + 0.9% w/v benzyl alcohol, FIG. 2", "value": "Significant amounts of precipitate visible"},
      {"measurement": "Precipitate observed (Comment)", "setting": "[1]; 0.5% w/v in water + 0.9% w/v benzyl alcohol, FIG. 2, listed as sodium deoxycholate", "value": "a significant amount of precipitate is formed; also recorded: significant amounts of precipitate"},
      {"measurement": "Precipitation Rating", "setting": "[1]; 0.5% w/v in water + 0.9% w/v benzyl alcohol", "value": 10},
      {"measurement": "Precipitate observed (Comment)", "setting": "[1]; 1% w/v in water + 0.9% w/v benzyl alcohol, FIG. 3", "value": "Significant amounts of precipitate visible"},
      {"measurement": "Precipitate observed (Comment)", "setting": "[1]; 1% w/v in water + 0.9% w/v benzyl alcohol, FIG. 3, listed as sodium deoxycholate", "value": "a significant amount of precipitate is formed; also recorded: significant amounts of precipitate, albeit less than that of 0.5% w/v sodium deoxycholate"},
      {"measurement": "Precipitation Rating", "setting": "[1]; 1.0% w/v in water + 0.9% w/v benzyl alcohol", "value": 7},
      {"measurement": "Precipitate observed (Comment)", "setting": "[1]; 2% w/v in water + 0.9% w/v benzyl alcohol, FIG. 4", "value": "Precipitation visible to the naked eye but"},
      {"measurement": "Precipitate observed (Comment)", "setting": "[1]; 2% w/v in water + 0.9% w/v benzyl alcohol, FIG. 4, listed as sodium deoxycholate", "value": "significant amounts of precipitate but substantially less than that observed in FIGS. 2 and 3"},
      {"measurement": "Precipitation Rating", "setting": "[1]; 2.0% w/v in water + 0.9% w/v benzyl alcohol", "value": 2},
      {"measurement": "pH", "setting": "[2]; 0.5% w/v solution, reading 1, 24.7 °C", "value": 7.77},
      {"measurement": "pH", "setting": "[2]; 0.5% w/v solution, reading 2, 24.5 °C", "value": 7.71},
      {"measurement": "pH", "setting": "[2]; 1% w/v solution, reading 1, 24.6 °C", "value": 7.93},
      {"measurement": "pH", "setting": "[2]; 1% w/v solution, reading 2, 24.5 °C", "value": 7.97},
      {"measurement": "pH", "setting": "[2]; 2% w/v solution, reading 1, 24.9 °C", "value": 8.07},
      {"measurement": "pH", "setting": "[2]; 2% w/v solution, reading 2, 24.7 °C", "value": 8.06}
    ]}
  ]
}
